Source: patent US20130337579A1, “Methods for Determining Protein Ligand Binding” (UNIVERSITY OF MARYLAND, COLLEGE PARK, priority 2010, published 2013)

How the values were obtained:
HisMBP-Alg44PilZ = molecular target: T1, HisMBP-Alg44PilZ (Pseudomonas aeruginosa, UniProt Q9HY69); experiment: DRaCALA competition of cold nucleotides with 32P-cdiGMP binding to HisMBP-Alg44PilZ; parameters: species or system P. aeruginosa; details: 1 mM cold nucleotide (400-fold molar excess over protein), 4 nM 32P-cdiGMP
T1 construct: His-MBP-Alg44PilZ was varied from 100 μM to 6 nM; made in house; host or cells: E. coli BL21(DE3)
Experimental: FIG. 2. Detection of specific protein-ligand interactions by DRaCALA. (A) DRaCALA images of interactions between purified proteins (20 μM) incubated with 500 nM ^14C-cAMP, 4 nM ^32P-ATP, or 4 nM ^32P-cdiGMP. Protein-ligand mixtures were spotted on nitrocellulose and allowed to dry prior to imaging using a Fuji FLA7100 phosphorimager. Cognate protein-nucleotide combinations are indicated by arrowheads. MBP was used as a negative control. (B) DRaCALA images of competition assays assessing the ability of 1 mM of the indicated cold nucleotides to compete with binding interactions between 4 nM ^32P-cdiGMP and 2.5 μM HisMBP-Alg44PilZ. (C) Graph of fraction bound for each sample in […] with averages indicated by a horizontal bar. NC indicates no competitor. P values were determined by a Student's t-test for significant differences when compared to the no-competitor (NC) control for three independent experiments. For total intensity of each DRaCALA spot in FIGS. 2A and 2B, see Tables 1 and 2, respectively.
Radiolabeled ligands were incubated with each of the proteins and the mixtures were spotted on nitrocellulose. After spreading by capillary action, membranes were dried and quantitated by phosphorimager. […] Each of the radiolabel signals from MBP mixtures was distributed by capillary action (FIG. 2A). […] The specificity of Alg44PilZ binding to cdiGMP was further tested by competition with excess unlabeled nucleotides (400-fold molar excess relative to the Alg44PilZ protein). Alg44PilZ binding to ^32P-cdiGMP was abolished by cdiGMP, but not by cGMP, GMP, GDP, GTP, ATP, CTP or UTP as was previously described (FIG. 2B). The FB for cdiGMP was 0.31±0.07, which was reversed by competition with unlabeled cdiGMP to the background level of 0.04±0.01 (FIG. 2C).
(§1) Protein or whole cell lysates in 1× cdiGMP binding buffer (20 μl) was mixed with 4 nM of radiolabeled nucleotide and allowed to incubate for 10 minutes at room temperature. Radiolabeled nucleotide was competed away by cold nucleotides in concentrations and for times indicated. Purified proteins were tested in technical replicates. Whole cell lysates in FIG. 4 and FIG. 12 were tested in biological triplicates. Whole cell lysates in FIG. 5 were tested in technical replicates. These mixtures were pipetted (2.5-5 μl) onto dry, untreated nitrocellulose (GE Healthcare) in triplicate and allowed to dry completely before quantification. An FLA7100 Fujifilm Life Science Phosphorimager was used to detect luminescence following a 5-minute exposure of blotted nitrocellulose to phosphorimager film. Data was quantified using Fujifilm Multi Gauge software v3.0.

[1] = molecular target: T2, P. aeruginosa Alg44PilZ (His-MBP-Alg44PilZ) (Pseudomonas aeruginosa, UniProt Q9HY69); experiment: biochemical; format: binding; details: 20 μM purified protein; 500 nM 14C-cAMP, 4 nM 32P-ATP or 4 nM 32P-cdiGMP
T2 construct: His-MBP-Alg44PilZ was varied from 100 μM to 6 nM; made in house; host or cells: E. coli BL21(DE3)
Source text: DRaCALA exploits the ability of nitrocellulose membranes to preferentially sequester proteins over small molecule ligands. When a mixture of protein and radiolabeled ligand is spotted onto a dry nitrocellulose membrane, protein and bound ligand are immobilized at the site of contact while free ligand is mobilized by capillary action with the liquid phase (FIG. 1A). DRaCALA is a rapid assay, as the capillary action can be completed in less than 5 seconds. […] Because capillary action distributes the unbound ligand throughout the mobile phase, the calculation for the fraction bound (FB) can be corrected for this background (see below for edge effects at the solvent front and annulation of the protein). Therefore, FB is defined by the equation in FIG. 1B, where Iinner is the intensity of signal in the area with protein (inner circle) and Itotal is the total signal of the entire sample (outer circle). The Iinner signal consists of both ligand bound to protein and unbound ligand that has not mobilized beyond the area of the inner circle, which we define as Ibackground. Ibackground can be calculated by subtracting the signal intensity of the Iinner from the total ligand Itotal and adjusting for the relative areas of the inner (Ainner) and outer circles (Atotal) (FIG. 1B).
(§2) Radiolabeled ligands were incubated with each of the proteins and the mixtures were spotted on nitrocellulose. After spreading by capillary action, membranes were dried and quantitated by phosphorimager. […] The specificity of Alg44PilZ binding to cdiGMP was further tested by competition with excess unlabeled nucleotides (400-fold molar excess relative to the Alg44PilZ protein).
Kd can be measured by altering either the protein or ligand concentrations in titration experiments; since DRaCALA detects only the ligand mobility, ligand concentrations can be always held constant. […] Since the assay is completed in less than 5 seconds, DRaCALA can also be used to determine the koff for those protein-ligand complexes with slower off rates. koff was determined for cdiGMP and Alg44PilZ by spotting at the indicated time points after the addition of 1 mM unlabeled cdiGMP to a pre-incubated mixture of Alg44PilZ and ^32P-cdiGMP (FIG. 3C). […] Both edge and annulation effects are explained in FIG. 8. The edge effect is due to evaporation of the solvent during the time of the experiment, and is dependent on the humidity of the local environment around the nitrocellulose support. The evaporation results in a smaller total area (Atotal observed in FIG. 8A) and leads to an increased value in the calculated Ibackground. As a secondary correction for the edge effect, the fraction bound determined for spotted ligand in the absence of protein can be subtracted from all samples in parallel (FIG. 8B).

E. coli CRP = molecular target: T3, E. coli CRP (Escherichia coli, UniProt P0ACJ8); experiment: DRaCALA binding of radiolabeled nucleotides to purified CRP; details: 20 μM purified protein; 500 nM 14C-cAMP, 4 nM 32P-ATP or 4 nM 32P-cdiGMP
T3 construct: His; made in house
Experimental: as §2, §1

E. coli NtrB = E. coli NtrB (Escherichia coli, UniProt P0AFB5); experiment: DRaCALA binding of radiolabeled nucleotides to purified NtrB; details: 20 μM purified protein; 500 nM 14C-cAMP, 4 nM 32P-ATP or 4 nM 32P-cdiGMP
Experimental: as §2, §1

T1 sequence (Q9HY69 16-116): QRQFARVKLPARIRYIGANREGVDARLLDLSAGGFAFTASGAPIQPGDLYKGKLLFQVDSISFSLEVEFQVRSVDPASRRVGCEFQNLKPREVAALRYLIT
T2 sequence (Q9HY69 16-116): as above
Sequence of E. coli NtrB (P0AFB5 whole entry): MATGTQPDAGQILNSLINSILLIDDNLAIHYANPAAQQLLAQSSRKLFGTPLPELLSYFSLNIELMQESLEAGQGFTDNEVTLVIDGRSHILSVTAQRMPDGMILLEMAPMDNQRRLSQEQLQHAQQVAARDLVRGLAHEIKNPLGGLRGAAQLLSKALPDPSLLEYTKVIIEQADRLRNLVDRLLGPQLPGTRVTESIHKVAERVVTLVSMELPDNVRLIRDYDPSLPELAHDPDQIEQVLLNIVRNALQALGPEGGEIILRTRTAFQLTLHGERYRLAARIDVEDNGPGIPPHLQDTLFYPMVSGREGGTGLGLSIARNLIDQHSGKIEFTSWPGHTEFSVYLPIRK
T3 sequence (P0ACJ8 whole entry): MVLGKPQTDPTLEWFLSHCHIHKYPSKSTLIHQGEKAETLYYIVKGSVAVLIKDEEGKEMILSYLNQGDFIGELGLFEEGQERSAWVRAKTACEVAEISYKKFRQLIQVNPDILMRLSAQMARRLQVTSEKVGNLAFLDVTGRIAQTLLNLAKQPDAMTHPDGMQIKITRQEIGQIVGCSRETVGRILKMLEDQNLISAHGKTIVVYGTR

Compound	Alg44PilZ binding to 32P-cdiGMP abolished by unlabeled nucleotide (HisMBP-Alg44PilZ)	binding to Alg44PilZ (sequestration of radiolabel signal) [1]	binding to CRP (sequestration of radiolabel signal) (E. coli CRP)	binding to NtrB (sequestration of radiolabel signal) (E. coli NtrB)
Nc1nc2c(ncn2[C@@H]2O[C@H](COP(=O)(O)OP(=O)(O)OP(=O)(O)O)[C@@H](O)[C@H]2O)c(=O)[nH]1 [GTP]	not	–	–	–
Nc1nc2c(ncn2[C@@H]2O[C@H](COP(=O)(O)OP(=O)(O)O)[C@@H](O)[C@H]2O)c(=O)[nH]1 [GDP]	not	–	–	–
Nc1nc2c(ncn2[C@@H]2O[C@H](COP(=O)(O)O)[C@@H](O)[C@H]2O)c(=O)[nH]1 [GMP]	not	–	–	–
Nc1ccn([C@@H]2O[C@H](COP(=O)(O)OP(=O)(O)OP(=O)(O)O)[C@@H](O)[C@H]2O)c(=O)n1 [CTP]	not	–	–	–
O=c1ccn([C@@H]2O[C@H](COP(=O)(O)OP(=O)(O)OP(=O)(O)O)[C@@H](O)[C@H]2O)c(=O)[nH]1 [UTP]	not	–	–	–
Nc1nc2c(ncn2[C@@H]2O[C@@H]3COP(=O)(O)O[C@H]3[C@H]2O)c(=O)[nH]1 [cGMP]	not	–	–	–
Nc1ncnc2c1ncn2[C@@H]1O[C@H](COP(=O)(O)OP(=O)(O)OP(=O)(O)O)[C@@H](O)[C@H]1O [ATP]	not	not	did not bind	bound
